According to patent publication US7045343B2, “Sterilization indicator test packs” (3M Innovative Properties Company, priority 1998, dated 2006):

Legend:
[1] = test system: enzyme associated with Bacillus stearothermophilus spores; assay: Rapid enzyme fluorescence readout of dual rapid readout indicators after prevacuum steam sterilization; type: biochemical; details: 4-pulse prevacuum steam 121° C.
Method: (§1) The indicators prepared for the Examples were dual rapid readout indicators that provided both a rapid, enzyme-based efficacy test and a confirmatory spore outgrowth test. Spores coated on the carrier strip 16 served as the source of active enzyme whose activity was measured by the rapid enzyme test. These same spores were then incubated in the spore outgrowth portion of the test.
(§2) Bacillus stearothermophilus, commercially available as ATCC 7953 from American Type Culture Collection, Rockville, Md., was grown overnight (16 hours) at 58° C. in tryptic soy broth. This culture was used to inoculate the surface of agar plates consisting of 8 g/l nutrient broth, 4 g/l yeast extract, 0.1 g/l manganese chloride and 20 g/l agar at pH 7.2. Plates were incubated at 58° C. for 72 hours. Spores were scraped from the plates and suspended in sterile distilled water. The spores were separated from the vegetative debris by centrifuging the suspension at 7000 rpm and 4° C. for 20 minutes. The supernatant was poured off and the spores were resuspended in sterile distilled water. The cleaning procedure was repeated several times. After the final wash, the spores were suspended in sterile distilled water, at a concentration of approximately 1×10^8 spores per milliliter.
(§3) The spores were then treated with the chemicals identified in Tables 1–5. All chemicals tested were obtained from commercial sources. The spores were centrifuged at 6000 rpm for 10 minutes. The supernatant and coating chemical mixtures were heated at 60–80° C. for several minutes and vortexed to get the material into solution. The spores were then mixed into the sterilant-resistant chemical solution. The sterilant-resistant chemical solution was applied to 5×25 mm, 591 A paper strips (Schleicher & Schuell, Inc., Keene, N.H.) by pipetting 10–15 microliters to each strip for a final population of about 1×10^6 spores per strip. The strips were dried 16 hours at 37° C.
(§4) The treated spore strips were placed on the bottom of the outer container 12 of the indicator 10 and a barrier was inserted between the spore strip 16 and the inner container 18, which contained enzyme substrate. A […] ( 11/16 inch) disc of polypropylene blown microfiber material, with a weight of 200 g/m^2, commercially available as “THINSULATE™ 200-B brand Thermal Insulation” from 3M Company, St. Paul, Minn., was used as the barrier. The inner container 18 contained 0.67 ml nutrient medium, consisting of 17 g of a bacteriological peptone and a 0.17 g/l of L-alanine, as well as 0.1 g 4-methylumbelliferyl-alpha-D-glucoside, commercially available from Sigma Chemical Company, St. Louis, Mo., dissolved in 200 microliters of N,N-dimethylformamide, and 0.03 g bromocresol purple pH indicator dye, per liter of water. The pH of the enzyme substrate and nutrient medium solution was adjusted to 7.6 with 0.1N sodium hydroxide.
(§5) Sterilization indicators were made as described above with each of the chemicals and concentrations described in Table 1. Control indicators were made using untreated spores. The indicators were placed in metal instrument trays and exposed at 121° C. in a Getinge Steam Sterilizer (Getinge International, Inc., 1100 Towbin Ave., Lakewood, N.J.) using a 4-pulse prevacuum cycle at 121° C. with a vacuum level of 0.075–0.085 bar and a steam pulse to 1.00 bar for each pulse. Indicators were exposed in the sterilizer for between 7 and 13 minutes. This cycle is depicted in the time-pressure diagram in FIG. 5. After exposure the inner containers containing the enzyme substrate and nutrient medium were crushed and the indicators were incubated at 60° C. The indicators were examined for fluorescence using a 3M™ ATTEST™ Model 190 Rapid Autoreader, commercially available from 3M Company, St. Paul, Minn. Additionally, spore growth, as indicated by a color change from purple to yellow, was determined visually after 168 hours of incubation at 60° C. […]

[2] = test system: Bacillus stearothermophilus spores; assay: Spore outgrowth (color change) of indicators after prevacuum steam sterilization; type: cell-based; details: 4-pulse prevacuum steam 121° C.
Method: as §1, §2, §3, §4, §5

[3] = test system: enzyme associated with Bacillus stearothermophilus spores; assay: Rapid enzyme fluorescence readout of indicators after hydrogen peroxide plasma sterilization; type: biochemical; details: 1–3 hours after exposure
Method: Sterilization indicators for Examples 6–9 were prepared as described above with the exception that closure member 22 of the sterilization indicator was constructed of TYVEK™ high-density polyethylene fiber material, commercially available from E.I. du Pont de Nemours and Co., Wilmington, Del.
(§6) Sterilization indicators were made as described above with spores that had been coated with each of the chemicals and concentrations listed in Table 6. The indicators were placed in instrument trays and exposed to a hydrogen peroxide plasma sterilization procedure at 45–55° C. in a STERRAD™ 100SI GMP Sterilizer, obtained from Advanced Sterilization Products Co., Irvine, Calif. During the sterilization procedure a vacuum was drawn in the sterilization chamber for 5–6 minutes until the pressure was reduced to 300 mTorr. A 1.8 ml aliquot of an aqueous solution of 58–60% hydrogen peroxide was then injected into the sterilization chamber over a period of about 6 minutes, yielding an empty chamber concentration of […] hydrogen peroxide, and hydrogen peroxide vapor was allowed to diffuse throughout the chamber for 1–22 minutes at 6–10 Torr. A vacuum was then drawn, reducing the pressure to 500 mTorr and removing all detectable hydrogen peroxide vapor from the chamber.
After exposure to the sterilization procedure, the indicators were removed from the sterilizer and the inner containers containing the enzyme substrate and nutrient medium were crushed. The indicators were then incubated at 60° C. and examined for fluorescence every hour for 5 hours using a 3M™ ATTEST™ Model 190 Rapid Autoreader, commercially available from 3M Company, St. Paul, Minn. Additionally, spore growth, as indicated by a color change from purple to yellow, was determined visually after 168 hours of incubation.
The number of growth positive indicators detected after 168 hours of incubation is recorded in Table 6.
as §6, with “7.” for “6.”
as §6, with “8.” for “6.”, “chamber. […]” for “chamber.”

[4] = Example 1, 5 mg/ml coating, 7–13 min
[5] = Example 1, 10 mg/ml coating, 7–13 min
[6] = Example 1, 20 mg/ml coating, 7–13 min
[7] = Example 1, 40 mg/ml coating, 7–13 min
[8] = Example 4, 50 mg/ml coating, 7–18 min
[9] = Example 4, 100 mg/ml coating, 7–18 min
[10] = Example 5, 50 mg/ml coating, 7–13 min
[11] = Example 5, 100 mg/ml coating, 7–13 min

Compound	FLUORESCENCE - PERCENT POSITIVE 1 HR [1, 4]	FLUORESCENCE - PERCENT POSITIVE 2 HR [1, 4]	FLUORESCENCE - PERCENT POSITIVE 3 HR [1, 4]	FLUORESCENCE - PERCENT POSITIVE 4 HR [1, 4]	FLUORESCENCE - PERCENT POSITIVE 5 HR [1, 4]	FLUORESCENCE - PERCENT POSITIVE 6 HR [1, 4]	FLUORESCENCE - PERCENT POSITIVE 1 HR [1, 5]	FLUORESCENCE - PERCENT POSITIVE 2 HR [1, 5]	FLUORESCENCE - PERCENT POSITIVE 3 HR [1, 5]	accuracy of sterilization indicators compared to indicators made with untreated spores [1]	FLUORESCENCE - PERCENT POSITIVE 1 HR [1, 8]	FLUORESCENCE - PERCENT POSITIVE 2 HR [1, 8]	FLUORESCENCE - PERCENT POSITIVE 3 HR [1, 8]	FLUORESCENCE - PERCENT POSITIVE 4 HR [1, 8]	FLUORESCENCE - PERCENT POSITIVE 1 HR [1, 9]	FLUORESCENCE - PERCENT POSITIVE 2 HR [1, 9]	FLUORESCENCE - PERCENT POSITIVE 3 HR [1, 9]	FLUORESCENCE - PERCENT POSITIVE 4 HR [1, 9]	NO. GROWTH POSITIVE 168 HR [2, 8]	NO. GROWTH POSITIVE 168 HR [2, 9]	further results
Tetraglyceryl Monostearate	0%	43.2%	67.6%	83.8%	94.6%	97.3%	0%	63.0%	81.5%	–	–	–	–	–	–	–	–	–	–	–	FLUORESCENCE - PERCENT POSITIVE 4 HR [1, 5]: 94.4%; FLUORESCENCE - PERCENT POSITIVE 5 HR [1, 5]: 96.3%; FLUORESCENCE - PERCENT POSITIVE 6 HR [1, 5]: 98.1%; FLUORESCENCE - PERCENT POSITIVE 1 HR [1, 6]: 0%; FLUORESCENCE - PERCENT POSITIVE 2 HR [1, 6]: 74.3%; FLUORESCENCE - PERCENT POSITIVE 3 HR [1, 6]: 92.9%; FLUORESCENCE - PERCENT POSITIVE 4 HR [1, 6]: 100.0%; FLUORESCENCE - PERCENT POSITIVE 5 HR [1, 6]: 100.0%; FLUORESCENCE - PERCENT POSITIVE 6 HR [1, 6]: 100.0%; FLUORESCENCE - PERCENT POSITIVE 1 HR [1, 7]: 0%; FLUORESCENCE - PERCENT POSITIVE 2 HR [1, 7]: 94.7%; FLUORESCENCE - PERCENT POSITIVE 3 HR [1, 7]: 100.0%; FLUORESCENCE - PERCENT POSITIVE 4 HR [1, 7]: 100.0%; FLUORESCENCE - PERCENT POSITIVE 5 HR [1, 7]: 100.0%; FLUORESCENCE - PERCENT POSITIVE 6 HR [1, 7]: 100.0%; NO. GROWTH POSITIVE 168 HR [2, 4]: 37; NO. GROWTH POSITIVE 168 HR [2, 5]: 54; NO. GROWTH POSITIVE 168 HR [2, 6]: 70; NO. GROWTH POSITIVE 168 HR [2, 7]: 19
Hexaglyceryl Monostearate	0%	32.0%	78.0%	84.0%	90.0%	94.0%	0%	31.8%	63.6%	–	–	–	–	–	–	–	–	–	–	–	FLUORESCENCE - PERCENT POSITIVE 4 HR [1, 5]: 79.5%; FLUORESCENCE - PERCENT POSITIVE 5 HR [1, 5]: 84.1%; FLUORESCENCE - PERCENT POSITIVE 6 HR [1, 5]: 86.4%; FLUORESCENCE - PERCENT POSITIVE 1 HR [1, 6]: 0%; FLUORESCENCE - PERCENT POSITIVE 2 HR [1, 6]: 61.4%; FLUORESCENCE - PERCENT POSITIVE 3 HR [1, 6]: 86.4%; FLUORESCENCE - PERCENT POSITIVE 4 HR [1, 6]: 95.5%; FLUORESCENCE - PERCENT POSITIVE 5 HR [1, 6]: 97.7%; FLUORESCENCE - PERCENT POSITIVE 6 HR [1, 6]: 97.7%; NO. GROWTH POSITIVE 168 HR [2, 4]: 50; NO. GROWTH POSITIVE 168 HR [2, 5]: 44; NO. GROWTH POSITIVE 168 HR [2, 6]: 44
O=CC(=O)C=O [1,2,3-Propantrial]	–	–	–	–	–	–	–	–	–	–	–	–	–	–	–	–	–	–	–	–	accuracy of sterilization indicators compared to indicators made with untreated spores [3]: improved
Hexaglyceryl Monolaurate	–	–	–	–	–	–	–	–	–	improved	0%	28.6%	57.1%	71.4%	90.0%	100.0%	100.0%	100.0%	7	20	–
Decaglyceryl Monolaurate	–	–	–	–	–	–	–	–	–	improved	0%	27.3%	72.7%	72.7%	87%	100.0%	100.0%	100.0%	11	23	–
Decaglyceryl Monooleate	–	–	–	–	–	–	–	–	–	improved	0%	0%	0%	0%	7.7%	23.1%	50%	73.1%	10	26	FLUORESCENCE - PERCENT POSITIVE 1 HR [1, 10]: 0%; FLUORESCENCE - PERCENT POSITIVE 2 HR [1, 10]: 0%; FLUORESCENCE - PERCENT POSITIVE 3 HR [1, 10]: 0%; FLUORESCENCE - PERCENT POSITIVE 4 HR [1, 10]: 0%; FLUORESCENCE - PERCENT POSITIVE 1 HR [1, 11]: 0%; FLUORESCENCE - PERCENT POSITIVE 2 HR [1, 11]: 50%; FLUORESCENCE - PERCENT POSITIVE 3 HR [1, 11]: 100%; FLUORESCENCE - PERCENT POSITIVE 4 HR [1, 11]: 100%; NO. GROWTH POSITIVE 168 HR [2, 10]: 6; NO. GROWTH POSITIVE 168 HR [2, 11]: 2
